Experimental data published in US8846643B2, “Phosphonates with reduced toxicity for treatment of viral infections” (The Regents of the University of California, priority 2010, dated 2014).

Columns and labels:
[1] = tested on: HCV genotype 1b replicon (BM4-5); test: anti-HCV activity in genotype 1b replicon (BM4-5); type: cell-based, hepatitis C virus; conditions: Hepatitis C virus, BM4-5, read-out: EC50 (μM) BM4-5(1b)
[2] = tested on: HCV genotype 2a replicon (JFH-1); test: anti-HCV activity in genotype 2a replicon (JFH-1); type: cell-based, hepatitis C virus; conditions: Hepatitis C virus, read-out: EC50 (μM) JFH-1 (2a)
[3] = tested on: HIV-1NL43; test: HIV-1 replication in human peripheral blood mononuclear cells; type: cell-based; conditions: HIV-1 infected human PBMCs
[4] = tested on: Vaccinia; conditions: reported previously; read-out: EC50 for vaccinia inhibition; cited from earlier work
[5] = tested on: Cowpox; conditions: data from Beadle et al.; cited from earlier work
[6] = tested on: HCMV; conditions: data from Beadle et al.; cited from earlier work
[7] = in vitro; conditions: human, HFF fibroblasts
[8] = cytotoxicity in MT-2 cells; conditions: human
[9] = tested on: MT-2 cells; test: cytotoxicity in MT-2 cells; conditions: MT-2 cells
[10] = tested on: HIV-1; test: microbe, parasite or virus in culture; conditions: Human immunodeficiency virus 1, MT2
[11] = cytotoxicity (CC50) in HCV replicon cells / Huh 7.5 liver cells; conditions: human

In the case of `CCCCCCCCCCCCCCCCCCOCCOP(=O)(O)CO[C@H](CO)Cn1cnc2c(N)ncnc21` [Cmpd 1, octadecyloxyethyl 9-(S)-[3-hydroxy-2-(phosphonomethoxy)propyl]adenine, reference compound], the EC50 [1] is reported as 1.55 ± 0.5 µM, the EC50 [2] is reported as 1.65 ± 0.33 µM and the “activity against HIV-1 in human PBMCs (in words)” value [3] is reported as “highly active and selective”. For the same compound, the EC50 [4] was 0.02 µM, the EC50 [5] was 0.05 ± 0.04 µM and the EC50 [6] was 0.003 ± 0.001 µM. The CC50 [7] was 0.58 ± 0.3 µM, the CC50 [8] was 0.03 ± 0.02 µM and the CC50 [9] was 0.033 µM. For the same compound, the EC50 [10] was 0.0001 µM and the CC50 [11] was 35.6 µM.
